Reference: patent US11827628B2, “Compositions and methods for inhibition of the JAK pathway” (Rigel Pharmaceuticals, Inc., priority 2005, dated 2023)
Where a name gives a salt, the structure may show the parent alone.

Test system: IL-4 stimulated expression of CD23 in human Ramos B cells (JAK-1 and JAK-3)
Experiment: Assay for Ramos B-Cell Line Stimulated with IL-4 (CD23 upregulation, FACS)
Format: cell-based
Details: Homo sapiens, Ramos, Ramos B cells stimulated with IL-4, CD23 expression by FACS; read-out: IC50, Example 41
Excerpt: One means of assaying for such inhibition is detection of the effect of the 2,4-substituted pyrimidinediamine compounds on the upregulation of downstream gene products. In the Ramos/IL4 assay, B-cells are stimulated with the cytokine Interleukin-4 (IL-4) leading to the activation of the JAK/Stat pathway through phosphorylation of the JAK family kinases, JAK1 and JAK3, which in turn phosphorylate and activate the transcription factor Stat-6. […] To study the effect of inhibitors (e.g., the 2,4-substituted pyrimindinediamine compounds described herein) on the JAK1 and JAK3 kinases, human Ramos B cells are stimulated with human IL-4. Twenty to 24 hours post stimulation, cells are stained for upregulation of CD23 and analyzed using flow cytometry (FACS). […] An exemplary assay of this type is described in greater detail in Example 41
B-cells stimulated with cytokine Interleukin-4 (IL-4) activate the JAK/Stat pathway through phosphorylation of the JAK family kinases, JAK-1 and JAK-3, which in turn phosphorylate and activate the transcription factor Stat-6. […] To study the effect of inhibitors on the JAK family kinases, human Ramos B cells are stimulated with human IL-4.
The Ramos B-cell line was acquired from ATCC (ATCC Catalog No. CRL-1596). The cells were cultured in RPMI 1640 (Cellgro, MediaTech, Inc., Herndon, VA, Cat No. 10-040-CM) with 10% fetal bovine serum (FBS), heat inactivated (JRH Biosciences, Inc, Lenexa, Kansas, Cat No. 12106-500M) according to ATCC propagation protocol. Cells were maintained at a density of 3.5×10^5. The day before the experiment, Ramos B-cells were diluted to 3.5×10^5 cells/mL to ensure that they were in a logarithmic growth phase.
Cells were spun down and suspended in RPMI with 5% serum. 5×10^4 cells were used per point in a 96-well tissue culture plate. Cells were pre-incubated with compound or DMSO (Sigma-Aldrich, St. Louis, MO, Cat No. D2650) vehicle control for 1 hour in a 37° C. incubator. Cells were then stimulated with IL-4 (Peprotech Inc., Rocky Hill, NJ, Cat No. 200-04) for a final concentration of 50 units/mL for 20-24 hours. Cells were then spun down and stained with anti-CD23-PE(BD Pharmingen, San Diego, CA, Cat No. 555711) and analyzed by FACS. Detection was performed using a BD LSR I System Flow Cytometer, purchased from Becton Dickinson Biosciences of San Jose, California The IC50 calculated based on the results of this assay are provided in TABLE XII.

IC50	Compound
1.11 µM	COc1ccc(CN2C(=O)C(C)Sc3ccc(Nc4nc(Nc5ccc(C)c(S(N)(=O)=O)c5)ncc4F)cc32)cc1 (racemic) [Compound V-9, (R/S)-N2-(3-Aminosulphonyl-4-methylphenyl)-5-fluoro-N4-[2-methyl-3-oxo-4-(4-methoxybenzyl)-benzo[1,4]thiazin-6-yl]-2,4-pyrimidinediamine]
6.41 µM	NC(=O)c1c[nH]c2cc(Nc3nc(Nc4ccc(Cl)c(S(N)(=O)=O)c4)ncc3F)ccc12 [IX-10, N4-[3-(Aminocarbonyl)-1H-indol-6-yl]-N2-(3-aminosulfonyl-4-chlorophenyl)-5-fluoro-2,4-pyrimidinediamine]
11.3 µM	COc1ccc(N(C)c2nc(Nc3cc(C)c(Cl)c(S(N)(=O)=O)c3)ncc2F)cc1Cl [VI-21, N2-(3-Aminosulfonyl-4-chloro-5-methylphenyl)-N4-(3-chloro-4-methoxyphenyl)-5-fluoro-N4-methyl-2,4-pyrimidinediamine]
1.07 µM	Cc1ccc(Nc2ncc(F)c(Nc3ccc(CCNC(N)=O)cc3)n2)cc1S(N)(=O)=O [VI-71, N4-{4-[2-(Aminocarbonylamino)ethyl]phenyl}-N2-(3-aminosulfonyl-4-methylphenyl)-5-fluoro-2,4-pyrimidinediamine]
0.548 µM	Cc1ccc(Nc2ncc(F)c(Nc3ccc4c(c3)CCC(=O)N4)n2)cc1S(N)(=O)=O [VII-21, N2-(3-Aminosulfonyl-4-methylphenyl)-N4-[3,4-dihydro-(1H)-quinolin-2-one-6-yl]-5-fluoro-2,4-pyrimidinediamine]
0.623 µM	O=S(=O)(c1ccc(Nc2ncc(F)c(Nc3ccc4c(c3)OCCO4)n2)cc1)N1CCCC1 [VII-24, N4-(3,4-Ethylenedioxyphenyl)-5-fluoro-N2-[4-(pyrrolidin-1-ylsulfonyl)phenyl]-2,4-pyrimidinediamine]
3.08 µM	CCC(=O)NS(=O)(=O)c1cc(Nc2ncc(F)c(Nc3ccc(CCC#N)c(C)c3)n2)ccc1C [VI-103, N4-[4(2-Cyanoethyl)-3-methylphenyl]-5-fluoro-N2-(4-methyl-3-propionylaminosulfonylphenyl)-2,4-pyrimidinediamine]
1.04 µM	NS(=O)(=O)c1ccc(Nc2ncc(F)c(Nc3ccc(C(=O)N4CCSCC4)cc3)n2)cc1 [IX-36, N2-(4-Aminosulfonylphenyl)-5-fluoro-N4-[4-(4-thiomorpholinyl)carbonylphenyl]-2,4-pyrimidinediamine]
0.0281 µM	CNS(=O)(=O)c1ccc(Nc2ncc(F)c(Nc3ccc4c(c3)NC(=O)C(C)(C)O4)n2)cc1OC [VII-37, N4-(2,2-Dimethyl-3-oxo-4H-benz[1,4]oxazin-6-yl)-5-fluoro-N2-[4-(N-methyl)aminosulfonyl-3-methoxyphenyl]-2,4-pyrimidinediamine]

Same assay, conditions: Homo sapiens, Ramos, Ramos B-cell line stimulated with IL-4; CD23 expression by FACS; read-out: IC50, Example 41

IC50	Compound
1.19 µM	CNC(=O)COc1ccc(Nc2nc(Nc3ccc(S(N)(=O)=O)cc3)ncc2F)cc1 [Compound I-143, N2-(4-Aminosulfonylphenyl)-5-fluoro-N4-(4-methylaminocarbonylmethoxyphenyl)-2,4-pyrimidinediamine]
0.142 µM	Cc1cc(Nc2nc(Nc3cccc(S(N)(=O)=O)c3)ncc2F)ccc1OCc1ccccn1 [Compound I-167, N2-(3-Aminosulfonylphenyl)-5-fluoro-N4-[(4-((pyridin-2-yl)methoxy)-3-methylphenyl)]-2,4-pyrimidinediamine]
0.388 µM	CN(C)C(=O)COc1ccc(Nc2nc(Nc3ccc(Cl)c(S(N)(=O)=O)c3)ncc2F)cc1Cl [Compound I-140, N2-(3-Aminosulfonyl-4-chlorophenyl)-N4-(3-chloro-4-dimethylaminocarbonylmethoxyphenyl)-5-fluoro-2,4-pyrimidinediamine]
1.01 µM	CNC(=O)COc1ccc(Nc2nc(Nc3cccc(S(N)(=O)=O)c3)ncc2F)cc1 [Compound I-144, N2-(3-Aminosulfonylphenyl)-5-fluoro-N4-(4-methylaminocarbonylmethoxyphenyl)-2,4-pyrimidinediamine]

Same assay, conditions: Ramos B cells stimulated with IL-4, CD23 expression by FACS; read-out: IC50, Example 41

IC50	Compound
2.68 µM	NC(=O)NCc1cccc(Nc2nc(Nc3cccc(S(N)(=O)=O)c3)ncc2F)c1 [III-114, N4-(3-aminocarbonylaminomethyl)phenyl-N2-(3-aminosulfonyl)phenyl-5-fluoro-2,4-pyrimidinediamine]
0.217 µM	CNS(=O)(=O)c1ccc(Nc2ncc(F)c(Nc3ccc4c(c3)OCCO4)n2)cc1OC [VII-25, N4-(3,4-Ethyenedioxyphenyl)-5-fluoro-N2-[4-(N-methyl)aminosulfonyl-3-methoxyphenyl]-2,4-pyrimidinediamine]
0.944 µM	N2-(4-aminosulfonyl)phenyl-5-fluoro-N4-(4-thiomethylcarbonyl)phenyl-2,4-pyrimidinediamine [VI-94]
1.4 µM	CNS(=O)(=O)c1cc(Nc2ncc(F)c(Nc3ccc(C(=O)N4CCN(S(C)(=O)=O)CC4)cc3)n2)ccc1C [IX-31, 5-Fluoro-N2-[3-(N-methylaminosulfony)-4-methylphenyl]-5-fluoro-N4-[4-(1-methanesulfonyl-4-piperizinyl)carbonylphenyl]-2,4-pyrimidinediamine]

The next lines start with the compound.

Compound	IC50
COc1ccc(CN2C(=O)C(C)Oc3ccc(Nc4nc(Nc5cccc(S(N)(=O)=O)c5)ncc4F)cc32)cc1 (racemic) [Compound V-5, Racemic N2-(3-Aminosulphonylphenyl)-5-fluoro-N4-[2-methyl-3-oxo-4-(4-methoxybenzyl)-benz[1,4]oxazin-6-yl]-2,4-pyrimidinediamine]	0.696 µM
Cc1ccc(Nc2ncc(F)c(Nc3ccc4sc(CCC#N)cc4c3)n2)cc1S(N)(=O)=O [Compound V-16, N2-(3-Aminosulfonyl-4-methylphenyl)-N4-(2-cyanoethylene-benzothiophen-5-yl)-5-fluoro-2,4-pyrimidinediamine]	8.37 µM
CNS(=O)(=O)c1cccc(Nc2nc(Nc3cccc(S(N)(=O)=O)c3)ncc2F)c1 [IV-11, N2-(3-Aminosulfonylhenyl)-5-fluoro-N4-[3-(N-methylaminosulfonyl)phenyl]-2,4-pyrimidinediamine]	0.367 µM

Same assay, conditions: Ramos B cells stimulated with IL-4, CD23 expression by FACS; sodium salt; read-out: IC50, Example 41

IC50	Compound
6.09 µM	CCC(=O)NS(=O)(=O)c1cccc(Nc2ncc(F)c(Nc3ccc(CCOC(=O)N(C)C)cc3)n2)c1 [VI-66, N4-{4-[2-(Dimethylaminocarbonyloxy)ethyl]phenyl}-5-fluoro-N2-(3-propionylaminosulfonylphenyl)-2,4-pyrimidinediamine sodium salt]

Same assay, conditions: Ramos B-cell line stimulated with IL-4; CD23 expression by FACS; read-out: IC50, Example 41

IC50	Compound
1.48 µM	COC(=O)CN(c1ccc(OCc2cc(C)on2)cc1)c1nc(Nc2ccc(C)c(S(N)(=O)=O)c2)ncc1F [Compound I-227, N2-(3-Aminosulfonyl-4-methylphenyl)-5-fluoro-N4-methoxycarbonylmethyl-N4-[4-(5-methylisoxazol-3-yl)methyleneoxyphenyl]-2,4-pyrimidinediamine]
0.616 µM	CCN(CC)CCNS(=O)(=O)c1cccc(Nc2ncc(F)c(Nc3ccc(OCc4ccccn4)cc3)n2)c1 [Compound I-166, N2-[3-(2-N,N-Diethylaminoethyl)aminosulfonylphenyl)-5-fluoro-N4-[4-(2-pyridinyl)methyleneoxyphenyl]-2,4-pyrimidinediamine]
0.538 µM	CC(C)(Oc1ccc(Nc2nc(Nc3ccc(S(N)(=O)=O)cc3)ncc2F)cc1)C(N)=O [Compound I-125, N4-[4-(1-Aminocarbonyl-1-methyl)ethoxy]phenyl-N2-(4-aminosulfonyl)phenyl-5-fluoro-2,4-pyrimidinediamine]
0.976 µM	COC(=O)CNS(=O)(=O)c1cccc(Nc2ncc(F)c(Nc3ccc(OCc4cc(C)on4)cc3)n2)c1 [Compound I-215, 5-Fluoro-N2-[3-(N-methoxycarbonylmethylene)aminosulfonylphenyl]-N4-[4-(5-methylisoxazol-3-yl)methyleneoxyphenyl]-2,4-pyrimidinediamine]
0.78 µM	CNS(=O)(=O)c1ccc(Nc2ncc(F)c(Nc3cccc(O)c3)n2)cc1OC [Compound I-270]

Same assay, conditions: Ramos B-cell line stimulated with IL-4; CD23 expression by FACS; sodium salt; read-out: IC50, Example 41

IC50	Compound
3.32 µM	CCC(=O)NS(=O)(=O)c1cccc(Nc2ncc(F)c(Nc3ccc(Cc4ccncc4)cc3)n2)c1 [III-69, 5-Fluoro-N4-[4-(4-pyridinylmethyl)phenyl]-N2-[(3-N-propanamido)sulfonylphenyl)]-2,4-pyrimidinediamine sodium salt]
